Data from ChEMBL document CHEMBL1146159, “Design, synthesis, and preliminary biological evaluation of novel ethyl 1-(2'-hydroxy-3'-aroxypropyl)-3-aryl-1H-pyrazole-5-carboxylate” (Bioorg Med Chem Lett, 2006).
Activity calls are given as the source filed them. The rule behind the calls is not given here.

Tests used:
Assay type in all cases: functional, cell-based
[1] = system: A549; experiment: Growth inhibition in A549 cells after 48 hrs by MTT assay; settings: Homo sapiens, A549, 48 h
[2] = system: A549; experiment: Growth inhibition in A549 cells at 25 uM after 24 hrs by MTT assay; settings: Homo sapiens
[3] = system: A549; experiment: Growth inhibition in A549 cells at 25 uM after 48 hrs by MTT assay; settings: Homo sapiens
[4] = system: A549; experiment: Growth inhibition in A549 cells at 50 uM by MTT assay; settings: Homo sapiens
[5] = system: A549; experiment: Growth inhibition in A549 cells at 100 uM by MTT assay; settings: Homo sapiens
[6] = system: A549; experiment: Growth inhibition in A549 cells at 12.5 uM after 48 hrs by MTT assay; settings: Homo sapiens
[7] = system: A549; experiment: Effect on cell morphology in A549 cells assessed as induction of differentiation at 50 uM; settings: Homo sapiens
[8] = system: A549; experiment: Effect on cell morphology in A549 cells assessed as induction of cellular vacuolation; settings: Homo sapiens

Structure (SMILES) | IC50 [1] [µM] | Activity [2] | Activity [3] | Activity [4] | Activity [5] | Activity [6] | Activity [7] | Activity [8]
CCOC(=O)c1cc(-c2ccccc2)nn1CC(O)COc1ccc([N+](=O)[O-])cc1 (stereo unspecified) | 48 | Active | inactive | Active | Active | – | – | –
CCOC(=O)c1cc(-c2ccccc2)nn1CC(O)COc1ccccc1 (stereo unspecified) | 65 | – | Active | Active | Active | – | – | –
CCOC(=O)c1cc(-c2ccc(Cl)cc2)nn1CC(O)COc1ccccc1OC (stereo unspecified) | 32 | – | Active | Active | Active | – | – | –
CCOC(=O)c1cc(-c2ccccc2)nn1CC(O)COc1ccccc1[N+](=O)[O-] (stereo unspecified) | 30 | Active | inactive | Active | Active | – | – | –
CCOC(=O)c1cc(-c2ccccc2)nn1CC(O)COc1ccc(Cl)cc1 (stereo unspecified) | 59 | – | – | Active | Active | – | – | –
CCOC(=O)c1cc(-c2ccc(Cl)cc2)nn1CC(O)COc1ccccc1[N+](=O)[O-] (stereo unspecified) | 26 | Active | inactive | Active | Active | Active | – | –
CCOC(=O)c1cc(-c2ccc(OC)cc2)nn1CC(O)COc1ccccc1[N+](=O)[O-] (stereo unspecified) | 45 | – | – | Active | Active | – | – | –
CCOC(=O)c1cc(-c2ccc(OC)cc2)nn1CC(O)COc1ccc([N+](=O)[O-])cc1 (stereo unspecified) | 44 | – | – | Active | Active | – | – | –
CCOC(=O)c1cc(-c2ccccc2)nn1CC(O)COc1ccccc1OC (stereo unspecified) | 58 | Active | inactive | Active | Active | – | – | –
CCOC(=O)c1cc(-c2ccc(Cl)cc2)nn1CC(O)COc1ccccc1 (stereo unspecified) | 27 | Active | inactive | Active | Active | Active | Active | –
CCOC(=O)c1cc(-c2ccc(OC)cc2)nn1CC(O)COc1ccccc1 (stereo unspecified) | 33 | – | Active | Active | Active | – | – | –
CCOC(=O)c1cc(-c2ccc(Cl)cc2)nn1CC(O)COc1ccc(Cl)cc1 (stereo unspecified) | 33 | – | Active | Active | Active | – | – | Active
CCOC(=O)c1cc(-c2ccc(OC)cc2)nn1CC(O)COc1ccccc1OC (stereo unspecified) | 68 | – | – | Active | Active | – | – | –
CCOC(=O)c1cc(-c2ccc(Cl)cc2)nn1CC(O)COc1ccc([N+](=O)[O-])cc1 (stereo unspecified) | 45 | Active | inactive | Active | Active | Active | – | –
CCOC(=O)c1cc(-c2ccc(OC)cc2)nn1CC(O)COc1ccc(Cl)cc1 (stereo unspecified) | 38 | – | – | Active | Active | – | – | –
